According to US9181290B2, “Inhibition of biofilm formation by 1,2,3,4,6-penta-O-galloyl-D-glucopyranose” (CHANG GUNG UNIVERSITY, priority 2011, dated 2015):

Assays:
[1] = test system: PIA production by clinical isolates of S. aureus (SA13, SA288, SA44, SA 130); assay: Quantification of PIA in four clinical isolates; assay type: cell-based, Staphylococcus aureus; settings: 12.5 μM and 25 μM, 6 hrs
Method: The amount of PIA was determined by chemiluminescence detection using horseradish peroxidase-conjugated streptavidin (Pierce) according to a method described elsewhere (S. Schlag et al. (2007), supra). Briefly, a tested bacterial strain prepared in TSBg broth was added with β-PGG at a designated concentration and then cultured in a 9 cm petri dish for 6 hrs. The bacterial cells grown in the petri dish were collected by scraping, followed by centrifugation, and the resultant cell pellets were redissolved by addition of 3 mL of 0.5 M EDTA (pH 8.0) for every gram (wet weight) of cell pellet, followed by boiling at 100° C. for 10 min. After centrifugation at 10,000 g for 30 min, the resultant supernatant was 100-fold diluted. An 80 μL aliquot of the diluted supernatant was incubated with 20 μL of proteinase K (10 mg/mL, in dH2O) at 37° C. for 2 hrs, followed by blotting onto a PVDF membrane (Millipore) using a 96-well dot-blot apparatus. […] Thereafter, the membrane was detected by autoradiography using X-ray film, and the intensity of each spot formed on the X-ray film was quantified using a densitometer (LAS-3000, Fujifilm). The relative PIA amount produced by the tested bacterial strain was determined based on the detected intensity, with the amount of PIA from bacterial cells without PGG treatment being set as 100%. […]

[2] = test system: S. aureus SA113 (ATCC 35556); assay: Biofilm formation on polycarbonate discs (crystal violet); assay type: cell-based; settings: Staphylococcus aureus, ATCC35556, 6 hours, read-out: inhibition of biofilm formation on polycarbonate surface
Method: To quantify the amount of biofilm formed on polycarbonate surface, a 13-mm-diameter polycarbonate disc (Thermanox, Nalgene Nunc International, Rochester, N.Y., USA) was placed in a well of a 24-well microtiter plate, followed by the addition of 1 mL aliquot of the diluted bacterial culture. After incubation at 37° C. for a designated period of time, viable cells were washed off the surface of the polycarbonate disc with PBS and counted as described above, while the PBS-washed polycarbonate disc was subjected to crystal violet staining for biofilm quantification as described above.
To determine the effect(s) of (β-PGG upon bacterial growth and biofilm formation, β-PGG in various amounts (final concentration: 0, 1.56, 3.13, 6.25, 12.5, 25 and 50 μM) was added into the culture of S. aureus SA113 during seeding into the wells of polystyrene microtiter plates, followed by incubation at 37° C. for 6 hrs or 24 hrs. Cell growth was determined by measuring the absorbance at 578 nm, and the amount of biofilm formed on polystyrene surface was determined at 595 nm after crystal violet staining. In addition to polystyrene surface, the effect of β-PGG in inhibiting biofilm formation on polycarbonate surface was also examined according to the procedures as described in the preceding section entitled “Materials and methods.”

293T cells = assay: Cell viability assay (MTT); assay type: cell-based, human
Method: (§1) Human HepG2 cells (ATCC HB-8065) and 293T cells (ATCC CRL-11268) were cultured in Dulbecco's modified Eagle's medium (DMEM) supplemented with 10% (v/v) fetal calf serum. Human MRC-5 cells (ATCC CCL171) and HEp-2 cells (ATCC CCL-23) were cultured in Eagle's minimum essential medium (MEM) supplemented with 10% fetal calf serum. These four human cell lines were seeded into 24-well polystyrene tissue culture plates at a cell density of 1×10^5 cells/500 μL medium per well, respectively. After incubation at 37° C. for 24 hrs, β-PGG was added into each well in various amounts (0, 6.25, 12.5, 25 and 50 μM). After 24 hr treatment of β-PGG, toxicity of β-PGG to these human cell lines was determined using the 3-(4,5-dimethylthiazol-2-yl)-2,5-diphenyltetrazolium bromide (MTT) method (Xiangshu Piao et al. (2008), supra). Additionally, toxicity of β-PGG to the 293T cells was also determined in medium containing 0% and 2% fetal calf serum. Cells treated with DMSO were used as a negative control.

HEp-2 cells = assay: Cell viability assay (MTT); assay type: cell-based, human; settings: concentrations below 50 μM, 24 hr treatment, 10% fetal calf serum
Method: as §1

MRC-5 cells = assay: Cell viability assay (MTT); assay type: cell-based, human; settings: concentrations below 50 μM, 24 hr treatment, 10% fetal calf serum
Method: as §1

HepG2 cells = assay: Cell viability assay (MTT); assay type: cell-based, human; settings: concentrations below 50 μM, 24 hr treatment, 10% fetal calf serum
Method: as §1

In the case of `O=C(OC[C@H]1O[C@@H](OC(=O)c2cc(O)c(O)c(O)c2)[C@H](OC(=O)c2cc(O)c(O)c(O)c2)[C@@H](OC(=O)c2cc(O)c(O)c(O)c2)[C@@H]1OC(=O)c1cc(O)c(O)c(O)c1)c1cc(O)c(O)c(O)c1` [β-PGG, 1,2,3,4,6-penta-O-galloyl-β-D-glucopyranose], the “PIA production by four clinical isolates” value [1] is reported as “inhibited PIA production”, the inhibition at 6.25 µM ([2]; 6.25 μM) is reported as 75% and the inhibition at 12.5 µM ([2]; 12.5 μM) is reported as 96%. The inhibition at 25 µM ([2]; 25 μM) was 99%, the “cell viability (MTT)” value (293T cells; concentrations below 50 μM, 24 hr treatment, 10% fetal calf serum) was “did not affect the viability” and the “influence of serum concentration on toxicity” value (293T cells; medium with 2% or 0% fetal calf serum) was “no influence upon the toxicity”. For the same compound, the “cell viability (MTT)” value (HEp-2 cells) was “did not affect the viability”, the “cell viability (MTT)” value (MRC-5 cells) was “did not affect the viability” and the “cell viability (MTT)” value (HepG2 cells) was “did not affect the viability”.
